Test results reported in US20260117274A1, “ORTHOGONALLY CROSSLINKED PROTEINS, METHODS OF MAKING, AND USES THEREOF” (The Research Foundation for The State University of New York, priority 2022, published 2026).

What was measured:
wild-type PylRS = biological target: T1, wild-type PylRS (Methanosarcina mazei, UniProt Q8PWY1); assay: Fluorescence-based detection of BeLaK incorporation into sfGFP-Q204TAG; type: cell-based; settings: 1 mM BeLaK
T1 construct: expressed in transfected cells; host or cells: E. coli BL21(DE3) transformed with pEVOL-PylRS
T1 sequence (Q8PWY1 whole entry): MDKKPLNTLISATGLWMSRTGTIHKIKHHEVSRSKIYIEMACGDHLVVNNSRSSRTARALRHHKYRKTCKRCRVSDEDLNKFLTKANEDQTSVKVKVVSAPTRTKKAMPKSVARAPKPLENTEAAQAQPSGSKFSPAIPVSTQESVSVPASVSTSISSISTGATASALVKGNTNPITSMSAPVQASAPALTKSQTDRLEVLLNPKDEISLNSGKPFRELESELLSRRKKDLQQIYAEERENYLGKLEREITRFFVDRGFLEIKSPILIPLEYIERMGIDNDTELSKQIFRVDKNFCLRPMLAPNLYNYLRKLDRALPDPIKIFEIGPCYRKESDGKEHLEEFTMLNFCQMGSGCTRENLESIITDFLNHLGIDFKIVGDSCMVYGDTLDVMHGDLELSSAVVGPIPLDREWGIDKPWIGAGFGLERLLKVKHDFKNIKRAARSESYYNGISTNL
Source text: (§1) To identify an aminoacyl-tRNA synthetase/tRNA pair for charging two phenylalanine derivatives, we screened our collection of pyrrolysine-tRNA synthetases (PylRS) (Table 1) using superfolder green fluorescent protein bearing an amber codon at position-204 (sfGFP-Q204TAG) as a reporter without success (FIG. 37). In parallel, to our delight, we found wild-type PylRS efficiently charges BeLaK into sfGFP-Q204TAG, with the cell lysate showing a 75-fold increase in fluorescence over the background, similar to BocK, a known substrate for wild-type PylRS (FIG. 32b). We also obtained the crystal structure of a protected BeLaK analog S11 (FIG. 38). We note the lactam ring forms an intramolecular H-bond with the lysine ε-N—H (FIG. 32a), mimicking the pyrroline ring in pyrrolysine—the native substrate of PylRS.
Site-specific incorporation of BeLaK into sfGFP. BL21(DE3) cells (50 μL) were co-transformed with the pET-sfGFP-Q204TAG and pEVOL-PylRS plasmids using the heat shock method. The cells were recovered in 900 μL SOC at 37° C. for 1 hour before plating onto a Luria-Bertani (LB) agar plate containing 100 μg/mL ampicillin and 34 μg/mL chloramphenicol. A single colony from the plate was used to inoculate 6 mL LB broth containing 100 μg/mL ampicillin and 34 μg/mL chloramphenicol. […] The supernatant was directly used for fluorescence tests after sonication and centrifugation. […]

[1] = NMR-based stability assay toward glutathione; type: physicochemical; settings: 10 mM glutathione in PBS for 3 days
Source text: We envisioned this acyl transfer-based crosslinking could proceed under neutral conditions if we can identify an appropriate genetically encoded leaving group. To this end, we considered a panel of azoles with pKa values ranging from 19.8 to 8.2, and a varying degree of leaving group effect (FIG. 1a). […] Thus, we designed a series of N-carboxy-4-aryl-1,2,3-triazole-containing lysines (CATK-1-7) as well as three analogous triazolyl lysines, CATK-8, -8a, and -9, for comparison purposes (FIG. 1b). For the synthesis of CATK-1-9, the critical step involved the triphosgene-mediated coupling of aryl- or alkyl-substituted triazoles with a protected lysine. While there was no apparent selectivity for N^2-carbamoylated CATKs, the two regioisomers can be readily separated by flash chromatography. After deprotection, CATK-1-9 were obtained in 7-52% yields. […] Since analogous 1,2,4-triazoles have also been used in designing small-molecule probes for serine hydrolases, we synthesized 1,2,4-triazole-based CATK-9 in four steps with an overall yield of 43%.
In our efforts to identify genetically encoded amino acids that are stable under physiological conditions yet reactive upon photoactivation or through proximity effect, we were intrigued by β-lactam, a venerable chemical moiety found in penicillin and other β-lactam class of antibiotics. […]

[2] = Stability under bacterial culture conditions (intact mass of sfGFP mutants)
Source text: (§2) To identify pyrrolysine-tRNA synthetase (PylRS) variants that can charge CATKs, we co-transformed BL21(DE3) cells with two plasmids: pEVOL-PylRS encoding PylRS and tRNACUA, and pET-sfGFP-Q204TAG encoding sfGFP bearing an amber codon. We screened a panel of PylRS variants (Table 1), and found one carrying Y306V, L309A, C348F, and Y384F mutations, hereafter referred to as CATKRS, can charge CATK-1, -2, -4, and -7 site-specifically into sfGFP (FIGS. 2b and 10). The incorporations were also confirmed by SDS-PAGE (FIG. 10) and QTOF-LC/MS analyses (FIGS. 2c and 11). Some amount of GSH adducts (˜30%) were detected, presumably due to the high reactivity of CATKs at position-204, a site on sfGFP that is completely solvent exposed.
as §1, with “We note the lactam ring forms an intramolecular H-bond with the lysine ε-N—H (FIG. 32a), mimicking the pyrroline ring in pyrrolysine—the native substrate of PylRS.” left out

[3] = cited from earlier work
CATKRS = biological target: T2, CATKRS (Methanosarcina mazei, UniProt Q8PWY1, C348F/L309A/Y306V/Y384F); assay: Fluorescence-based detection of CATK incorporation into sfGFP-Q204TAG in BL21(DE3) cells; type: cell-based; settings: 1 mM CATK
T2 construct: expressed in transfected cells; host or cells: E. coli BL21(DE3) transformed with pEVOL-CATKRS
T2 sequence (Q8PWY1 whole entry Y306V/L309A/C348F/Y384F): as the sequence (Q8PWY1 whole entry) above, with Y306V, L309A, C348F, Y384F counted along it
Source text: as §2
Site-specific incorporation of CATK into sfGFP. BL21(DE3) cells (50 μL) were co-transformed with the pET-sfGFP-Q204TAG and pEVOL-CATKRS plasmids using the heat shock method. The cells were recovered in 900 μL SOC at 37° C. for 1 hour before plating onto a Luria-Bertani (LB) agar plate containing 100 μg/mL ampicillin and 34 μg/mL chloramphenicol. A single colony from the plate was used to inoculate 6 mL LB broth containing 100 μg/mL ampicillin and 34 μg/mL chloramphenicol. One hundred twenty […] overnight culture was used to inoculate 12 mL LB broth containing the same concentrations of antibiotics. […] The culture was divided into two 6-mL portions. […] The cultures were incubated in an incubator-shaker (37° C., 280 rpm) for 8 hours. […] The supernatant was directly used for fluorescence tests after sonication and centrifugation. […] The mixture was incubated for 2 hours with gentle shaking.

[4] = test system: mCherry-TAG-EGFP-HA reporter; assay: Site-specific incorporation into mCherry-TAG-EGFP in HEK293T cells; type: cell-based, Human; settings: CATKRS/tRNA^Pyl, 0.5 mM CATK-1, fluorescence microscopy and western blot
Source text: (§3) To examine whether CATKs are compatible with genetic code expansion in mammalian cells, we first performed a cell viability assay by treating HEK293T cells with CATK-1 and -2 at various concentrations. […] We then cotransfected HEK293T cells with two plasmids: one encodes CATKRS/tRNA^Pyl, and the other encodes the mCherry-TAG-EGFP-HA reporter. The transfected cells were allowed to grow in DMEM supplemented with 10% FBS in the absence or presence of CATK-1.
Site-specific incorporation of CATK-1 into mCherry-TAG-EGFP in mammalian cells. Human Embryonic Kidney 293T (HEK293T) cells were seeded in a 12-well plate and grown in DMEM supplemented with 10% FBS (HyClone™ GE Healthcare Life Sciences) and 10 μg/mL Gentamycin (Gibco) and 2 μg/mL Plasmocin at 37° C., 5% CO2 until ˜90% confluency. The medium was replaced with DMEM, and cells were transfected by using polyethylenimine (Sigma-Aldrich) in Opti-MEM® (Gibco) with two plasmids (one encoding CATKRS/tRNAPyl CUA pair and another encoding mCherry-TAG-EGFP-HA). Six hours post-transfection, the medium was replaced with fresh DMEM with 10% FBS in the presence or absence of 0.5 mM CATK-1. After 24 hours, live cell images were recorded using the Lionheart™ FX automated microscope (BioTek). The cells were lysed by modified RIPA buffer (25 mM Tris HCl, pH 7.4, 150 mM NaCl, 1% NP-40, 1% sodium deoxycholate, 0.1% SDS, 1 mM EDTA, 1 mM PSMF). […]

HEK293T cells = type: cell-based; settings: human, 24 h
Source text: as §3
Cell viability assay. One hundred μL exponentially growing HEK293T cells were seeded into a 96-well plate at a density of 5×10^5 cells per ml. After 24 h, the cells were treated with varying concentrations of CATK amino acids and then incubated at 37° C. for 24 h. Then, 10 μL CCK-8 solution (Dojindo) was added to each well and the cells were further incubated in 37° C. incubator for 1 h. The plates were read immediately using Biotek microtiter plate reader at 450 nm.

Row | Compound | stability after incubation with glutathione [1] | site-specific charging into sfGFP by CATKRS (CATKRS) | also measured
1 | N[C@@H](CCCCNC(=O)N1CCC1=O)C(=O)O [BeLaK, N^6-(2-Oxoazetidine-1-carbonyl)-L-lysine] | remained intact | – | increase in fluorescence of cell lysate over the background (wild-type PylRS): 75 fold; stability under bacterial culture conditions [2]: stable under bacterial culture conditions
2 | c1cn[nH]n1 [2H-1,2,3-trizole] | – | – | pKa [3]: 9.4
3 | Cn1cccc1-c1cnn(C(=O)NCCCC[C@H](N)C(=O)O)n1 [CATK-7, N^6-(4-(1-Methyl-1H-pyrrol-2-yl)-2H-1,2,3-triazole-2-carbonyl)-L-lysine] | – | can charge | –
4 | N[C@@H](CCCCNC(=O)n1ncc(-c2ccccc2)n1)C(=O)O [CATK-1, N^6-(4-Phenyl-2H-1,2,3-triazole-2-carbonyl)-L-lysine] | – | can charge | incorporation into mCherry-TAG-EGFP-HA [4]: successful CATK-1 incorporation; concentrations at which cytotoxicity was not detected (HEK293T cells): ≤ 500 µM
5 | N[C@@H](Cc1ccc(N2CCC2=O)cc1)C(=O)O [BeLaF-2, (S)-2-amino-3-(4-(2-oxoazetidin-1-yl)phenyl)propanoic acid] | remained intact | – | –
6 | N[C@@H](CCCCNC(=O)n1ncc(-c2cccs2)n1)C(=O)O [CATK-4, N^6-(4-(Thiophen-2-yl)-2H-1,2,3-triazole-2-carbonyl)-L-lysine] | – | can charge | –
